Experiments:
[1] = system: PMA-induced release of endogenous IL-6R from PBMCs from patients suffering from rheumatoid arthritis; assay: ELISA-based IL-6R release assay, PMA-induced, PBMCs from RA-patients; type: cell-based; conditions: Homo sapiens, PBMC; PMA 25 ng/ml, 24 hours; chimeric antibodies (CHO) and IgG at 1 μg/ml; Batimastat at 10 μM
Protocol: (§1) In brief, on day 1, Nunc black MaxiSorp® 96-well plates (Thermo Fisher Scientific, USA) were coated overnight with 100 μl per well of mouse anti-human IL-6R capture antibody (provided as part of the DuoSet ELISA kit) at 4 μg/ml TBS at 4° C. Meanwhile, 40,000 PBMC from patients suffering from rheumatoid arthritis (STEMCELL Technologies, Canada) cells in 80 μl of normal growth medium were seeded in each well of Greiner CELLSTAR V-bottom 96-well plates (Thermo Fisher Scientific, USA) and pre-incubated with 20 μl per well of standard growth medium supplemented with Batimastat (BB94, Abcam, UK) at 50 μM as positive control (for a final concentration of 10 μM in the resulting 100 μl sample volume), mouse IgG antibody (Thermo Fisher Scientific, USA) at 5 μg/ml as isotype control (for a final concentration of 1 μg/ml in the resulting 100 μl sample volume) or antibodies of the invention at 5 μg/ml (for a final concentration of 1 μg/ml in the resulting 100 μl sample volume) at 37° C., 5% CO2 for 30 minutes. In case of stimulation controls, 20 μl of standard growth medium without test articles were added. […] Using an infinite M1000 (Tecan Group, Switzerland) microplate reader, the fluorescence of each well was collected at an excitation wavelength of 435 nm and an emission wavelength of 555 nm.

[2] = system: PMA-induced release of endogenous IL-6R from human THP-1 monocytic cells; assay: ELISA-based IL-6R release assay, PMA-induced, THP-1 cells; type: cell-based; conditions: PMA 25 ng/ml, 1 hour, recombinant murine antibodies and IgG at 1 μg/ml, Batimastat at 10 μM
Protocol: as §1, with “coated for 7 hours” for “coated overnight”, “at 2” for “at 4”, “at room temperature. Capture antibody solution was removed and MaxiSorp® plates were blocked with 300 μl per well of TBS, 1% BSA at room temperature for 1.5 hours.” for “at 4° C.”, “40,000 THP-1 (American Type Culture Collection, USA)” for “40,000 PBMC from patients suffering from rheumatoid arthritis (STEMCELL Technologies, Canada)”, “minutes.” for “minutes. In case of stimulation controls, 20 μl of standard growth medium without test articles were added.”

CNC(=O)[C@H](Cc1ccccc1)NC(=O)[C@H](CC(C)C)[C@H](CSc1cccs1)C(=O)NO [Batimastat]
inhibition at 10 µM [1]: 104%
inhibition at 10 µM [2]: 88.6%

Source: patent US20240287172A1, “PROTEIN BINDERS TO IRHOM2 EPITOPES” (SCIRHOM GMBH, priority 2019, published 2024)
